Tests used:
[1] = test system: TNFα secretion from stimulated white blood cells; test: TNFα ELISA, white blood cells stimulated with phorbol 12-myristate 13-acetate and ionomycin; format: cell-based, human; design: inhibition of TNFα secretion: dose or concentration left out as unconfirmed; conditions: PMA/ionomycin
Experimental: (§1) Stock solutions at 1.6 mg/ml of alprostadil, and 4.0 mg/ml of […] (Sigma-Aldrich, St. Louis, Mo.; catalog numbers P5515 and R-2625, respectively) were made in dimethylsulfoxide (DMSO). The alprostadil master plates were made by adding 25 μl of the concentrated stock solution to columns 3, 9, and 15 (rows C through N) of a polypropylene 384-well storage plate that had been pre-filled with 75 μl of anhydrous DMSO. Using a TomTec Quadra Plus liquid handler, the 25 μl of alprostadil stock solution was serially diluted four times into the adjacent columns (columns 4-7, 10-13, 16-19). […] The tretinoin master plates were made by adding 25 μl of the concentrated stock solution to the appropriate wells (row C, columns 3-8; row C, columns 9-14; row C, columns 15-20; row I, columns 3-8; row I, columns 9-14; row I, columns 15-20) of the appropriate master polypropylene 384-well storage plate. These master plates had been pre-filled with 75 μl of anhydrous DMSO. Using the TomTec Quadra Plus liquid handler, the 25 μl was serially diluted four times in the adjacent rows (rows D-G, and J-M). […] Master plates were sealed and stored at −20° C. until ready for use.
The final alprostadil/tretinoin combination plates were generated by transferring 1 μl from each of the alprostadil and tretinoin master plates to a dilution plate containing 100 μl of media (RPMI; Gibco BRL, #11875-085), 10% Fetal Bovine Serum (Gibco BRL, #25140-097), 2% Penicillin/Streptomycin (Gibco BRL, #15140-122)) using the TomTec Quadra Plus liquid handler. This dilution plate was then mixed and a 10 μl aliquot transferred to the final assay plate, which had been pre-filled with 40 μl/well RPM media containing the appropriate stimulant to activate TNFα secretion (see below).
(§2) The compound dilution matrix was assayed using a TNFα ELISA method. Briefly, a […] suspension of diluted human white blood cells contained within each well of a polystyrene 384-well plate (NalgeNunc) was stimulated to secrete TNFα by treatment with a final concentration of 10 ng/ml phorbol 12-myristate 13-acetate (Sigma) and 750 ng/ml ionomycin (Sigma). Various concentrations of each test compound were added at the time of stimulation. After 16-18 hours of incubation at 37° C. in a humidified incubator, the plate was centrifuged and the supernatant transferred to a white opaque polystyrene 384 well plate (NalgeNunc, Maxisorb) coated with an anti-TNFα antibody (PharMingen, #18631D). After a two-hour incubation, the plate was washed (Tecan PowerWasher 384) with phosphate buffered saline (PBS) containing 0.1% Tween 20 (polyoxyethylene sorbitan monolaurate) and incubated for an additional one hour with another anti-TNFα antibody that was biotin labeled (PharMingen, 18642D) and horseradish peroxidase (HRP) coupled to strepavidin (PharMingen, #13047E).). After the plate was washed with 0.1% Tween 20/PBS, an HRP-luminescent substrate was added to each well and light intensity measured using a LJL Analyst plate luminometer. Sets of control wells contained a serial dilution of Cyclosporin A (Sigma) starting at a final concentration of 0.5 μg/ml.
The combination of 0.052 μM tretinoin and 0.004 μM alprostadil was able to suppress TNFα secretion by 42%. […] Maximal tretinoin efficacy (−36% TNFα suppression) is therefore maintained while reducing the concentration of total drug species by greater than 90% (0.052 μM tretionoin+0.004 μM alprostadil compared to 0.832 μM tretinoin alone).

[2] = test system: TNFα secretion from stimulated white blood cells; test: Secondary screen, TNFα ELISA, white blood cells stimulated using 1 μg/ml LPS; format: cell-based, human
Experimental: as §1
This dilution plate was then mixed and a 10 μl aliquot transferred to the final assay plate, which had been pre-filled with 40 μl/well RPM media containing the appropriate stimulant to activate TNFα secretion (see below).
as §2
In this experiment, white blood cells were stimulated using 1 μg/ml LPS.

[3] = Homo sapiens, Alprostadil 0.004 μM alone
[4] = Homo sapiens, Alprostadil 0.018 μM alone
[5] = Homo sapiens, Alprostadil 0.071 μM alone
[6] = Homo sapiens, Tretinoin 0.052 μM alone
[7] = Homo sapiens, Tretinoin 0.208 μM alone
[8] = Homo sapiens, Tretinoin 0.832 μM alone
[9] = Homo sapiens, Tretinoin 3.329 μM alone
[10] = Homo sapiens, Tretinoin 13.316 μM alone

## CCCCC[C@H](O)/C=C/[C@H]1[C@H](O)CC(=O)[C@@H]1CCCCCCC(=O)O [Alprostadil, (11α, 13E, 15S)-11,15-dihydroxy-9-oxoprost-13-enoic acid]
[1]; [3]
  inhibition at 0.004 µM: 33.3%
[1]; [4]
  inhibition at 0.018 µM: 39.8%
[1]; [5]
  inhibition at 0.071 µM: 50.5%
[1]; Homo sapiens, Alprostadil 0.283 μM alone
  inhibition at 0.283 µM: 53.8%
[1]; Homo sapiens, Alprostadil 1.130 μM alone
  inhibition at 1.13 µM: 56.8%
[1]; alprostadil alone
  inhibition of TNFα secretion: 57%
[2]; [3]
  inhibition at 0.004 µM: 44.6%
[2]; Homo sapiens, Alprostadil 0.009 μM alone
  inhibition at 0.009 µM: 49.2%
[2]; [4]
  inhibition at 0.018 µM: 54.8%
[2]; Homo sapiens, Alprostadil 0.035 μM alone
  inhibition at 0.035 µM: 57.3%
[2]; [5]
  inhibition at 0.071 µM: 71.5%
[2]; Homo sapiens, Alprostadil 0.141 μM alone
  inhibition at 0.141 µM: 74.3%
[2]; Homo sapiens, Alprostadil 0.282 μM alone
  inhibition at 0.282 µM: 75.7%
[2]; Homo sapiens, Alprostadil 0.564 μM alone
  inhibition at 0.564 µM: 79.5%
[2]; Homo sapiens, Alprostadil 1.128 μM alone
  inhibition at 1.128 µM: 81.6%
[2]; alprostadil alone
  alprostadil concentration needed alone to attain 64.0% TNFα inhibition: ≥ 0.035 µM
[2]; alprostadil alone, concentration of at least 1.128 μM
  maximal TNFα-inhibitory effect: 82%

## CC1=C(/C=C/C(C)=C/C=C/C(C)=C/C(=O)O)C(C)(C)CCC1 [Tretinoin, 3,7-dimethyl-9-(2,6,6-trimethylcyclohex-1-enyl)nona-2,4,6,8-all-trans-tetraenoic acid]
[1]; [6]
  inhibition at 0.052 µM: 13.8%
[1]; [7]
  inhibition at 0.208 µM: 28.7%
[1]; [8]
  inhibition at 0.832 µM: 34.5%
[1]; [9]
  inhibition at 3.329 µM: 34.1%
[1]; [10]
  inhibition at 13.316 µM: 36.2%
[1]; tretinoin alone, concentrations ranging from 0.83-13.3 μM
  maximal inhibition of TNFα secretion: 36%
[2]; [6]
  inhibition at 0.052 µM: 32.7%
[2]; Homo sapiens, Tretinoin 0.104 μM alone
  inhibition at 0.104 µM: 35.1%
[2]; [7]
  inhibition at 0.208 µM: 32.5%
[2]; Homo sapiens, Tretinoin 0.416 μM alone
  inhibition at 0.416 µM: 32.7%
[2]; [8]
  inhibition at 0.832 µM: 38.4%
[2]; Homo sapiens, Tretinoin 1.664 μM alone
  inhibition at 1.664 µM: 37.6%
[2]; [9]
  inhibition at 3.329 µM: 44.1%
[2]; Homo sapiens, Tretinoin 6.658 μM alone
  inhibition at 6.658 µM: 48.7%
[2]; [10]
  inhibition at 13.316 µM: 52.1%
[2]; tretinoin alone, concentrations from 6.7-13.3 μM
  TNFα inhibition: approximately 50%

From patent publication US20050159485A1, “Combinations for the treatment of immunoinflammatory disorders and proliferative skin diseases” (priority 2002, published 2005)
